Each molecule was assayed on HEK293-STF3A cells (assay: STF3A assay (luciferase reporter)). Details: Homo sapiens, 24 h, 1 day of treatment.
Assay type: cell-based, Human
Text: HEK293-STF cell line was modified from Human embryonic kidney cell line HEK293 transfected with the STF reporter. HEK293-STF3A cell line was further modified from HEK293-STF cell line to express Wnt3A. This cell line was used to identify compounds that regulate either early or late signaling components of the Wnt pathway. These two cell lines were obtained from David Virshup's laboratory, Duke-NUS. L-Wnt3A (ATCC, #CRL-2647) cell line was used for providing Wnt3A conditioned media. The three cell lines were grown in DMEM with 10% FBS incubated in 37° C. with 5% CO2.
2×10^4 HEK293-STF3A cells in 75 μl culture media were seeded in each well of white 96 well plates (Greiner #655098) and incubated overnight at 37° C. 25 μl serially diluted compound was added to the cells to give final concentration of 50 μM to 1.5 nM. After 1 day of treatment, 100 μl of Steady-Glo Luciferase Assay reagent (#E2520, Promega) was added to each well and incubated for 10 minutes at room temperature. Luminescence was measured using Tecan Safire2 plate reader.

Compound	IC50 [nM]
Cc1cc2n(n1)CCCN2C(=O)CCC(=O)Nc1cnc(-c2cccnc2)c(C)n1 [Compound 125, N-(6-methyl-5-(pyridin-3-yl)pyrazin-2-yl)-4-(2-methyl-6,7-dihydropyrazolo[1,5-a]pyrimidin-4(5H)-yl)-4-oxobutanamide]	> 10000
Cc1cccc(-c2ccc(NC(=O)CCC(=O)N3CCCn4nc(C)cc43)nn2)c1 [Compound 99, 4-(2-methyl-6,7-dihydropyrazolo[1,5-a]pyrimidin-4(5H)-yl)-4-oxo-N-(6-(m-tolyl)pyridazin-3-yl)butanamide]	< 100
Cc1cc2n(n1)CCCN2C(=O)CCC(=O)Nc1ccc(-c2csc(C)n2)cc1 [Compound 28, 4-(2-methyl-6,7-dihydropyrazolo[1,5-a]pyrimidin-4(5H)-yl)-N-(4-(2-methylthiazol-4-yl)phenyl)-4-oxobutanamide]	< 100
Cc1cc2n(n1)CCCN2C(=O)CCC(=O)Nc1ccc(C(C)(C)C)cc1 [Compound 30, N-(4-(tert-butyl)phenyl)-4-(2-methyl-6,7-dihydropyrazolo[1,5-a]pyrimidin-4(5H)-yl)-4-oxobutanamide]	> 10000
Cc1cc2n(n1)CCN2C(=O)CCC(=O)Nc1cc(-c2cccc(Cl)c2)no1 [Compound 138, N-(3-(3-chlorophenyl)isoxazol-5-yl)-4-(6-methyl-2,3-dihydro-1H-imidazo[1,2-b]pyrazol-1-yl)-4-oxobutanamide]	> 10000
Cc1cc2n(n1)CCCN2C(=O)CC(C)C(=O)Nc1ccc(-c2cccnc2)nc1 (centres unmarked) [Compound 145, N-([2,3′-bipyridin]-5-yl)-2-methyl-4-(2-methyl-6,7-dihydropyrazolo[1,5-a]pyrimidin-4(5H)-yl)-4-oxobutanamide]	< 100
Cc1ccc(-c2cnc(NC(=O)CCC(=O)N3CCCn4nc(C)cc43)cn2)cn1 [Compound 127, 4-(2-methyl-6,7-dihydropyrazolo[1,5-a]pyrimidin-4(5H)-yl)-N-(5-(6-methylpyridin-3-yl)pyrazin-2-yl)-4-oxobutanamide]	< 1000
Cc1cc2n(n1)CCCN2C(=O)CCC(=O)Nc1ccc(-c2ccccc2)nc1 [Compound 43, 4-(2-methyl-6,7-dihydropyrazolo[1,5-a]pyrimidin-4(5H)-yl)-4-oxo-N-(6-phenylpyridin-3-yl)butanamide]	< 100
Cc1cc2n(n1)CCCN2C(=O)CCC(=O)NC1CCC(c2ccccc2)CC1 (centres unmarked) [Compound 80, 4-(2-methyl-6,7-dihydropyrazolo[1,5-a]pyrimidin-4(5H)-yl)-4-oxo-N-(4-phenylcyclohexyl)butanamide]	> 10000
Cc1cc2n(n1)CCCN2C(=O)CCC(=O)Nc1cnc(-c2cccc(F)c2)cn1 [Compound 123, N-(5-(3-fluorophenyl)pyrazin-2-yl)-4-(2-methyl-6,7-dihydropyrazolo[1,5-a]pyrimidin-4(5H)-yl)-4-oxobutanamide]	< 100
Cc1cc2n(n1)CCCN2C(=O)CCC(=O)Nc1ccc(-c2ccccc2)cc1 [Compound 33, N-([1,1′-biphenyl]-4-yl)-4-(2-methyl-6,7-dihydropyrazolo[1,5-a]pyrimidin-4(5H)-yl)-4-oxobutanamide]	< 100
Cc1cc2n(n1)CCCN2C(=O)CCC(=O)Nc1ccc(C2CCCCC2)cc1 [Compound 75, N-(4-cyclohexylphenyl)-4-(2-methyl-6,7-dihydropyrazolo[1,5-a]pyrimidin-4(5H)-yl)-4-oxobutanamide]	> 10000
Cc1cc2n(n1)CCCN2C(=O)CCC(=O)N(C)c1cc(-c2cccc(Cl)c2)no1 [Compound 130, N-(3-(3-chlorophenyl)isoxazol-5-yl)-N-methyl-4-(2-methyl-6,7-dihydropyrazolo[1,5-a]pyrimidin-4(5H)-yl)-4-oxobutanamide]	> 10000
Cc1cc2n(n1)CCCN2C(=O)CCC(=O)Nc1ccc(-c2cncc(N)c2)cn1 [Compound 117]	< 100
Cc1cccc(-c2cc(NC(=O)CCC(=O)N3CCCn4nc(C)cc43)on2)c1 [Compound 11, 4-{2-methyl-5H,6H,7H-pyrazolo[1,5-a]pyrimidin-4-yl}-N-[3-(3-methylphenyl)-1,2-oxazol-5-yl]-4-oxobutanamide]	> 10000
Cc1cccc(-c2ccc(NC(=O)CCC(=O)N3CCCn4nc(C)cc43)cn2)c1 [Compound 85, 4-(2-methyl-6,7-dihydropyrazolo[1,5-a]pyrimidin-4(5H)-yl)-4-oxo-N-(6-(m-tolyl)pyridin-3-yl)butanamide]	< 100
CCc1cc2n(n1)CCCN2C(=O)CCC(=O)Nc1cc(-c2cccc(Cl)c2)no1 [Compound 137, N-(3-(3-chlorophenyl)isoxazol-5-yl)-4-(2-ethyl-6,7-dihydropyrazolo[1,5-a]pyrimidin-4(5H)-yl)-4-oxobutanamide]	< 100
Cc1cc2n(n1)CCCN2C(=O)CCC(=O)Nc1ccc(-c2ccccc2)c(F)c1 [Compound 57, N-(2-fluorobiphenyl-4-yl)-4-(2-methyl-6,7-dihydropyrazolo[1,5-a]pyrimidin-4(5H)-yl)-4-oxobutanamide]	< 100
Cc1cc2n(n1)CCCN2C(=O)CCC(=O)Nc1ccc(-c2ccncc2)cc1 [Compound 36, 4-(2-methyl-6,7-dihydropyrazolo[1,5-a]pyrimidin-4(5H)-yl)-4-oxo-N-(4-(pyridin-4-yl)phenyl)butanamide]	< 1000
Cc1cc2n(n1)CCCN2C(=O)CCC(=O)Nc1ccc(-c2cccc(Cl)c2)nn1 [Compound 97, N-(6-(3-chlorophenyl)pyridazin-3-yl)-4-(2-methyl-6,7-dihydropyrazolo[1,5-a]pyrimidin-4(5H)-yl)-4-oxobutanamide]	< 100
Cc1cc2n(n1)CCCN2C(=O)CCC(=O)Nc1ccc(-c2ccnn2C)cc1 [Compound 29, N-(4-(1-methyl-1H-pyrazol-5-yl)phenyl)-4-(2-methyl-6,7-dihydropyrazolo[1,5-a]pyrimidin-4(5H)-yl)-4-oxobutanamide]	< 1000
Cc1cc2n(n1)CCCN2C(=O)CCC(=O)Nc1ccc(-c2cccnc2)nc1 [Compound 48, N-([2,3′-bipyridin]-5-yl)-4-(2-methyl-6,7-dihydropyrazolo[1,5-a]pyrimidin-4(5H)-yl)-4-oxobutanamide]	< 100
Cc1cc2n(n1)CCCN2C(=O)CCC(=O)Nc1cc(-c2cccc(C(F)(F)F)c2)no1 [Compound 13, 4-{2-methyl-5H,6H,7H-pyrazolo[1,5-a]pyrimidin-4-yl}-4-oxo-N-{3-[3-(trifluoromethyl)phenyl]-1,2-oxazol-5-yl}butanamide]	> 10000
Cc1cc2n(n1)CCCN2C(=O)CCC(=O)Nc1ncc(-c2ccccc2)cc1C [Compound 91, N-(3-methyl-5-phenylpyridin-2-yl)-4-(2-methyl-6,7-dihydropyrazolo[1,5-a]pyrimidin-4(5H)-yl)-4-oxobutanamide]	< 5000
Cc1cc2n(n1)CCCN2C(=O)CCC(=O)Nc1ccc(-c2ccc(N)cc2)cc1 [Compound 71, N-(4′-amino-[1,1′-biphenyl]-4-yl)-4-(2-methyl-6,7-dihydropyrazolo[1,5-a]pyrimidin-4(5H)-yl)-4-oxobutanamide]	< 100
Cc1cc2n(n1)CC(C)CN2C(=O)CCC(=O)Nc1ccc(-c2ccccc2)nn1 (centres unmarked) [Compound 139, 4-(2,6-dimethyl-6,7-dihydropyrazolo[1,5-a]pyrimidin-4(5H)-yl)-4-oxo-N-(6-phenylpyridazin-3-yl)butanamide]	< 100
